According to article PMC5152921, “Evolutionary and Functional Diversification of the Vitamin D Receptor-Lithocholic Acid Partnership” (PLoS ONE, 2016):

Columns and labels:
Assay in all cases: Competitive ligand binding assay ([3H]-1,25D3 displacement)
Conditions in all cases: lysate with VDR and human RXRWT; 4 nM [3H]-1,25D3; 18 hours at 4°C; Cheng-Prusoff; mean ± SEM
Skate VDR = biological target: T1, Skate VDR (Leucoraja erinacea, UniProt A0A088GDQ7)
T1 sequence (A0A088GDQ7 1-434): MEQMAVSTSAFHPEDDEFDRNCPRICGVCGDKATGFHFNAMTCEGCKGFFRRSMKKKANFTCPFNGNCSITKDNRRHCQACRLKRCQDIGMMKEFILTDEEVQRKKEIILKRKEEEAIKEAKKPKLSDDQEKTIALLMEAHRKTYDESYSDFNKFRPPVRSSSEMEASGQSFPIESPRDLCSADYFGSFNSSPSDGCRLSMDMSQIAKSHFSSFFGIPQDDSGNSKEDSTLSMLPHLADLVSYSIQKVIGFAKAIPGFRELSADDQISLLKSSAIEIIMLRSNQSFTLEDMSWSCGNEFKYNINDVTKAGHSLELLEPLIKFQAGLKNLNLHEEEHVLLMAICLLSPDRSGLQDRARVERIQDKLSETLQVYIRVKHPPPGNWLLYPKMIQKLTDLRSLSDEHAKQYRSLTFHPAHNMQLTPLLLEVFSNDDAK
T1 sequence (P19793 1-462 partner): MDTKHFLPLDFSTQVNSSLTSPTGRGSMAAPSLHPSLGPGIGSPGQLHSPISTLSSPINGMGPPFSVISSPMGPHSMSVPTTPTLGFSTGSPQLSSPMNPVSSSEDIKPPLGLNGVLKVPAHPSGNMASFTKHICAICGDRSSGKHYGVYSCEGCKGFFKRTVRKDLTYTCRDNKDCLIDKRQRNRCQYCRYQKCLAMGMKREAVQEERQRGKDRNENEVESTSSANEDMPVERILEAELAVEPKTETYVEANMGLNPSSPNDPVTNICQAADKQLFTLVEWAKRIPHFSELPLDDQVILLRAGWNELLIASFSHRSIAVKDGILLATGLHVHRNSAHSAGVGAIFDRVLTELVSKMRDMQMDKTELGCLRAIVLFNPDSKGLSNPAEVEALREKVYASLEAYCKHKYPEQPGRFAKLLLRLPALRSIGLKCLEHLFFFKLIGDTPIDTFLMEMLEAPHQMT
Description: (§1) Recombinant VDR and human RXRWT lysates were prepared from transfected COS7 cells (American Type Culture Collection #CRL-1651) as described in detail previously. Lysates were diluted 10-fold in ice-cold assay buffer (10 mM Tris HCl, 150 mM KCl, 1 mM EDTA, 0.3 mM ZnCl2, 5 mM DTT, and 1x protease inhibitor cocktail (100 μM AEBSF, 80 nM aprotinin, 5 μM bestatin, 1.5 μM E-64 (for cysteine proteases), 2 μM leupeptin, 1 μM pepstatin A), pH 7.5). […] Reactions were shaken to mix and incubated for 18 hours at 4°C. Bound and free ligand were separated with the addition of 80 μL of ice-cold separation buffer (2.5% (w/v) activated charcoal, 0.5% (w/v) dextran, 100 mM Na2HPO4, 39 mM NaH2PO4, 150 mM NaCl, 15 mM NaN3, 10% gelatin, pH 7.0), and incubated at 4°C for 15 minutes with shaking every 5 minutes. Reactions were centrifuged at 5,000 x g for 5 minutes at 4°C, and 200 μL of the supernatant containing the VDR-bound ligands was removed for scintillation counting.
(§2) Total binding was determined using lysate from cells transfected with VDR, and nonspecific binding was determined using lysate from cells transfected with the empty pSG5 vector. Specific binding was determined by subtracting non-specific binding counts from the total binding counts.

Bichir VDR = biological target: T2, Bichir VDR (Polypterus senegalus, UniProt A0A088GJ14)
T2 sequence (A0A088GJ14 1-421): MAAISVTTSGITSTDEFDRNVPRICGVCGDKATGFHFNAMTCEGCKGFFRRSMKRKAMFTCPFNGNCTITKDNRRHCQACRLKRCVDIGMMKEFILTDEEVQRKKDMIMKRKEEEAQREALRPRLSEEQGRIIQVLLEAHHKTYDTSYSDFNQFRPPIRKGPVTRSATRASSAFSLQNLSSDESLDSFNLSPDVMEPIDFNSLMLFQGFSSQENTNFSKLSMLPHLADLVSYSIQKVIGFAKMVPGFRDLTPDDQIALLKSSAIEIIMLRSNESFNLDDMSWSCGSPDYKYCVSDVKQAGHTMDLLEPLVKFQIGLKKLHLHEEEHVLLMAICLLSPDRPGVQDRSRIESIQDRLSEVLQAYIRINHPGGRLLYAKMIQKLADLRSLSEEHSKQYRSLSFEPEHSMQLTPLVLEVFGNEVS
T2 sequence (P19793 1-462 partner): T1 sequence (P19793 1-462 partner)
Description: as §1, §2

Medaka VDRβ = biological target: T3, Medaka VDRβ (Oryzias latipes, UniProt B2CCA1)
T3 sequence (B2CCA1 1-425): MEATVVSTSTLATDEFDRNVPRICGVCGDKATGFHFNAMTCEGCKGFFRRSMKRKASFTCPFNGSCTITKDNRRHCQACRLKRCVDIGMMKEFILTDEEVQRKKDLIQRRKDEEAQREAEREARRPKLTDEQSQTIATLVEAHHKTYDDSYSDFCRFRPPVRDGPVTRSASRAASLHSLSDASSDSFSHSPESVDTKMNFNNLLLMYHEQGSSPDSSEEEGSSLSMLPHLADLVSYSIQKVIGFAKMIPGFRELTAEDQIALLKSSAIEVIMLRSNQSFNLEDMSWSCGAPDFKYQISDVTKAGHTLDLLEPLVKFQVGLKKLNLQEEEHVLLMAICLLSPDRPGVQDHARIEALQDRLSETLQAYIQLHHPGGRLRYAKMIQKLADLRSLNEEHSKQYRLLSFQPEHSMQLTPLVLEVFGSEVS
T3 sequence (P19793 1-462 partner): T1 sequence (P19793 1-462 partner)
Description: as §1, §2

Lamprey VDR = biological target: T4, Lamprey VDR (Petromyzon marinus, UniProt Q7ZZY9)
T4 sequence (Q7ZZY9 1-406): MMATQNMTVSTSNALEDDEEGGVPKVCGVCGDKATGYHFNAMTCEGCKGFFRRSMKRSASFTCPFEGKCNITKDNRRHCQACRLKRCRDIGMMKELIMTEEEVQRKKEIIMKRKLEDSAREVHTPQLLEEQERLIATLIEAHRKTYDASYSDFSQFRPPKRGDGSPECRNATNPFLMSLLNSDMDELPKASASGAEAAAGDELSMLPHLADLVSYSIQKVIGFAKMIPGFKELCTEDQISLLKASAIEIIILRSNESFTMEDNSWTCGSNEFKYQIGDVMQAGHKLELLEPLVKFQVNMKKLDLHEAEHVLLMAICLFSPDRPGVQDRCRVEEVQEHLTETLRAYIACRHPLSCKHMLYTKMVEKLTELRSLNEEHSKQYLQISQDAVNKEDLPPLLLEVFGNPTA
T4 sequence (P19793 1-462 partner): T1 sequence (P19793 1-462 partner)
Description: as §1, §2

SMILES: C[C@H](CCC(=O)O)[C@H]1CC[C@H]2[C@@H]3CC[C@@H]4C[C@H](O)CC[C@]4(C)[C@H]3CC[C@]12C [LCA, 5β-cholanic acid-3α-ol]
- Ki (Skate VDR): 6.7 ± 2.1 µM
- Ki (Bichir VDR): 4.2 ± 0.4 µM
- Ki (Medaka VDRβ): 7.6 ± 1.1 µM
- Ki (Lamprey VDR): 8.7 µM
